Source: a melting point compilation (Tetko et al.; mined from patent text by program, amines drawn as free bases though some values may be those of a salt)

SMILES | melting point [°C]
CN1CCNC1=Nc1ccccc1N1CCOCC1 | 156
COc1cccc(C2CCCN2CCN2C(=O)c3ccccc3C2=O)c1 (configuration not stated) | 110 to 111
CCCNC(=O)[C@H](Cc1ccccc1)NC(=O)CNC(=O)OC(C)(C)C | 166 to 168
CN(C)CC1CN(C)C(=S)c2cccnc2O1 (configuration not stated) | 178 to 179
CCC(=O)NCCC1CCc2cc(F)c3c(c21)C=CCO3 (configuration not stated) | 106 to 108
COc1cc2ncnc(Nc3cccc(Br)c3)c2cc1OCC1CO1 (configuration not stated) | 230 to 245
COc1ccccc1-c1ccc(C[C@H](NC(=O)C(C)c2c(Cl)cccc2Cl)C(=O)O)cc1 (some centres not stated) | 109 to 110
O=C(CS(=O)(=O)c1ncc(Br)cn1)c1ccccc1 | 95
Cc1nc2ccccc2c(=O)n1CCN1CCC(c2noc3cc(F)ccc23)CC1 | 164 to 165
CC(=O)SCC(C)C(=O)Nc1cncc(C(=O)O)c1 (configuration not stated) | 154 to 158
Cc1cccc(NC(N)=S)c1N1CCOCC1 | 178 to 179
CNc1ccc2c(c1)Sc1cc(NC)ccc1N2C(C)=O | 137
CCCn1cc(C(=O)c2cccc3ccccc23)cc1C(=O)O | 145
CCCCn1c(=O)c(NC(=O)Nc2c(C(C)C)cc(N(C)Cc3cccnc3)cc2C(C)C)c(-c2cccc(OC)c2)c2cccnc21 | 155 to 157
CC(=O)NCC1CC1c1cccc2nscc12 (configuration not stated) | 96 to 97
CNC(=O)[C@@H]1CCCN1S(=O)(=O)c1ccc(Cl)c(COc2cccc3c2NC(C)(C)C=C3n2cncn2)c1Cl | 131
COc1cc(OC)c(-c2nc(N3CC(C)NC(C)C3)c3c(C)c(C#N)sc3n2)cc1OC (configuration not stated) | 186 to 188
O=C(NCC1CC1)Nc1ccc(N2CCOCC2)cc1C(=O)NCC1CCN(C(c2ccccc2)c2ccccc2)CC1 | 218 to 220
CC(=O)OC1CC2=CCC3C4CCC(C(C)CO)C4(C)CCC3C2(C)C(O)C1 (configuration not stated) | 121
CCCCOC(=O)NCC(=O)NCC1C2CCC(O2)C1CC=CCCCC(=O)O (configuration not stated) | 104 to 106
S=C(NC1CCCCC1)N1CCN(c2cnccn2)CC1 | 176 to 178
COc1ccc2cc(C(=O)[C@H](C)OS(=O)(=O)c3ccccc3)ccc2c1 | 74 to 75
COC(=O)C1=C(C)NC(C)=C(C(=O)OCCOc2ccc(CCOC(C)=O)cc2)C1c1cccc([N+](=O)[O-])c1 (configuration not stated) | 110
CC(C)=CCN1C(=O)c2ccccc2C1=O | 95 to 97
COc1ccc(N2C3CCC2CC(=O)C3)cc1 | 133 to 134
CSc1ncncc1C(c1ccccc1F)C(C)(C)C(=O)O (configuration not stated) | 204 to 205

SMILES | melting point [°C]
Cn1cnc(C=CC(=O)NC2CCNC(=O)C2)c1 (configuration not stated) | 280 to 282
C#CC(C)(C)CCOc1ccc(Cl)cc1 | 42 to 45
CCCc1nn(-c2ccc(C(F)(F)F)cn2)cc1CCCOc1cc(CCC(=O)O)n(-c2ccccc2)n1 | 149 to 150
COc1ccc(C2(c3ccc(OC)cc3)CC2(Cl)Cl)cc1 | 138
Cc1cccc(N2CCN(CCCON3C(=O)c4ccccc4C3=O)CC2)c1 | 127 to 128
CCCn1cnc2c1c(=O)n(CCCCOc1ccc(OC)cc1)c(=O)n2C | 61 to 62
C=CCN(CC=C)c1nc(NC(=O)c2c(Cl)cccc2Cl)n2oc(=O)nc2n1 | 133 to 135
O=C(CC=C(Cl)Cl)Oc1ccc(F)cc1 | 47 to 50
NC(=O)c1cccc(-c2nc3sccn3c2-c2ccnc(N[C@@H]3CCCN(S(=O)(=O)c4ccc(Cl)cc4)C3)n2)c1 | 168 to 170
C[C@H](NC(=O)OC(C)(C)C)C(=O)OCCCCNc1cccc2c1C(=O)c1ccccc1C2=O | 100
Cc1ccc2c3c(ncc2c1)CCC(=O)N3 | 265 to 266
O=C(O)CC(CC(=O)O)c1ccc2oc3c(c2c1)CCCC3 | 165 to 170
COC(=O)c1cccc(CN2CCN(c3nc(C)c(C(=O)NCc4ccccc4)s3)C2=O)c1 | 49 to 51
COc1ccccc1OC1(Cl)C=NC(N2CCOCC2)=NC1Cl (configuration not stated) | 180
Cc1ccccc1OC1CCN(CCc2c[nH]c3ccccc23)CC1 | 88 to 90
CC(Br)c1cc2ccccc2s1 (configuration not stated) | 53
O=C(CCCl)c1cc2c(s1)CCCC2 | 51 to 53
CC(C)(C)n1c(Cl)c(-c2ccc(Oc3ccccc3)cc2)c2c(N)ncnc21 | 137 to 138
O=C(O)c1ccc(-c2nc3ccccc3s2)nc1 | > 300
NC(=O)c1cnc2ccccc2c1 | 132 to 138
COC(=O)Oc1nc2c(N)ncnc2n1Cc1ccccc1 | > 300
O=C1c2ccccc2OCN1CCO | 59 to 61
Cc1ccc(S(=O)(=O)Nc2ccc(C(N)=O)cc2C(N)=O)cc1 | 212 to 215
CC(C)(C)c1ccc(CCCO)cc1NC(=O)CC1c2ccccc2Oc2ccccc21 | 185 to 186
CCCCNC(=O)N(c1ccccc1)c1ccccc1 | 92
O=C1C(O)=C(c2ccc3ccccc3c2)C(=O)C(O)=C1c1ccc(Cl)cc1 | 302 to 303

SMILES | melting point [°C]
COC(=O)c1ncn(Cc2ccc([N+](=O)[O-])cc2)n1 | 175 to 177
COC(=O)CCn1nnnc1CC[C@H](NC(=O)OCc1ccccc1)C(=O)OC | 80 to 81
CCOc1nn(Cc2ccc(OCc3ccc(-c4ccccc4)cn3)cc2)cc1CCC(=O)O | 127 to 128
CC(=O)C(=Cc1ccc(O)c(C(=O)O)c1)C(C)=O | 112 to 114
FC(F)(F)Oc1ccc(-c2ccc(C=CCBr)cc2)cc1 | 121 to 123
Cc1c(C)c(N2CCN(c3ccnn3C)CC2)c(C)c2c1OC(C)(C)C2 | 126 to 128
O=[N+]([O-])c1ccc(OCc2ccc3ccccc3n2)cc1 | 142 to 143
CCNc1nc(C)c(-c2ccnc(Nc3ccc(N4CCOCC4)c(OC)c3)n2)s1 | 224 to 226
NC(=NO)c1ncn2c1[C@@H]1CCCN1C(=O)c1c(Br)cccc1-2 | 235 to 237
CON(C)C(=O)CCc1nnc(-c2ccc3c(c2)CCO3)o1 | 112 to 113
COc1nc(C)c(N2CCCn3c2nc2c(Cl)ccc(C(OCC(F)(F)F)C4CC4)c23)c(C)n1 (configuration not stated) | 225 to 227
O=C1COc2cc(NC(=O)C(=O)N3CCC(Cc4ccc(F)cc4)CC3)ccc2N1 | 209 to 212
COC(=O)/C=C(/OC)c1cccc2ccc(Br)cc12 | 96 to 97
CS(=O)c1ccc(-n2cnnn2)cc1 (configuration not stated) | 175 to 176
Cc1c(-c2ccc(O)c(F)c2)sc(C=O)c1-c1ccc(O)c(Cl)c1 | 252 to 254
COc1ccc2nc(NC(=O)c3nnn(Cc4ccc(Cl)c(Cl)c4)c3C)sc2c1 | 225
CN1Cc2cscc2N(CCc2ccccc2)c2ccccc21 | 53 to 56
CCN(CC)CCNC(=O)c1nc(Cl)c(OC)nc1OC | 88
O=C(O)C1CCC(c2ccc(O)cc2)CC1 (configuration not stated) | 248 to 250
CCCCCCCc1noc(-c2ncn3c2CN(C)C(=O)c2c(Cl)cccc2-3)n1 | 108 to 110
CCOC(=O)c1cnc2sc(SCc3ccccc3)nn2c1=O | 129 to 132
Clc1ccc2c(c1)N(c1ncnc3c(Cl)cccc13)CC2 | 190
c1ccc2c(c1)CCN(Cc1cc3ccccc3[nH]1)C2 | 129 to 131
O=C1CCC(N2Cc3c(O)cccc3C2=O)C(=O)N1 (configuration not stated) | 296
O=c1c2cc(F)c(Cl)nc2n(-c2ccc(F)cc2F)c(=O)n1OCc1ccccc1 | 215 to 216
COc1cc2c(cc1OC)C(c1cccc(Cl)c1)=NN=C(C)C2 | 166 to 168

SMILES | melting point [°C]
C#CCOc1cc(C(=O)O)cc([N+](=O)[O-])c1C(=O)c1ccccc1 | 169 to 172
C[C@H](Nc1nc(C(N)=O)nc(Cl)c1-c1c(F)cc(F)cc1F)C(F)(F)F | 157 to 162
CC(=O)Oc1c(C=C(C#N)C#N)[nH]c2ccccc12 | 210 to 212
Cc1c(Cl)nc(Br)n1S(=O)(=O)c1cccnc1Cl | 144 to 146
CN(C(=O)OC(C)(C)C)c1cc(Oc2ccc(-c3nnn[nH]3)cc2)ccc1[N+](=O)[O-] | 81 to 84
CNc1ccc2c(c1)N(C)C(=O)N(c1ccc(Cl)cc1)S2(=O)=O | 207 to 209
CCSC1=C(c2ccc(O)cc2)C(=O)c2ccc(O)cc21 | 100 to 102
CCCCCCCNC(=O)Nc1ccccc1C(=O)NC1CCNCC1 | 159
CCOC(=O)C(=O)Nc1nnc2c3c(c(N4CCCCC4)nn12)CCCC3 | 168 to 169
CNc1nc(C)ccc1C(=O)OCC#N | 154 to 157
CC(C)(C)OC(=O)NCCOc1ccc(OCC2(C)OCCO2)cc1 | 80 to 82
COc1ccc(C(O)COc2ccc(C(=O)O)c(O)c2)cc1C(C)(C)C (configuration not stated) | 149 to 150
CC(=O)Oc1cccc(-c2csc3nc(C45CC6CC(CC(C6)C4)C5)cn23)c1 | 199 to 201
CC(=O)NC[C@H]1CN(c2ccc(N3CCC(O)(CN4CCNCC4)CC3)c(F)c2)C(=O)O1 | 175 to 177
CNC(=O)c1cnn(C)c1C(=O)Nc1ccn2nc(-c3ccccc3)nc2c1 | > 250
Cc1ccc(S(=O)(=O)N2CCC[C@H]2C(=O)N2c3ccc(Cl)c(Cl)c3C[C@@H]2C)cc1 | 170 to 173
CC(C)c1ccc(-c2ncc(-c3cccc(C(=O)O)c3)o2)cc1 | 193 to 195
CCOc1ccc2c(c1)n(C1CCCCC1)c(=O)n2S(=O)(=O)c1ccc(NC(=O)Oc2ccccc2)cc1OC | 197
CCC1(CC)C(=O)N(C(C)(C)C)CC(C)(C)N1C(C)c1ccc(C(C)=O)cc1 (configuration not stated) | 91 to 94
COc1cccc(CN2CCC(N3C(=O)Nc4ccccc4C3c3cccc(O)c3)CC2)c1 (configuration not stated) | > 250
Cc1nc2c(n1C)C(=O)c1ccccc1C2=O | > 253
CCOC(=O)c1ccc(C#CCc2ccc3c(c2)C(C)(C)CCC3(C)C)cc1 | 59 to 60
N#Cc1cnc2cc(F)ccc2c1O | > 250
CCCCn1nnc2cc(C(=O)O)ccc21 | 192
